For one test, the target named is T1, human 5-HT1A receptor (Homo sapiens, UniProt P08908).
T1 construct: purchased Packard Bioscience; host or cells: CHO cells (membrane preparation)
T1 sequence (P08908 1-422): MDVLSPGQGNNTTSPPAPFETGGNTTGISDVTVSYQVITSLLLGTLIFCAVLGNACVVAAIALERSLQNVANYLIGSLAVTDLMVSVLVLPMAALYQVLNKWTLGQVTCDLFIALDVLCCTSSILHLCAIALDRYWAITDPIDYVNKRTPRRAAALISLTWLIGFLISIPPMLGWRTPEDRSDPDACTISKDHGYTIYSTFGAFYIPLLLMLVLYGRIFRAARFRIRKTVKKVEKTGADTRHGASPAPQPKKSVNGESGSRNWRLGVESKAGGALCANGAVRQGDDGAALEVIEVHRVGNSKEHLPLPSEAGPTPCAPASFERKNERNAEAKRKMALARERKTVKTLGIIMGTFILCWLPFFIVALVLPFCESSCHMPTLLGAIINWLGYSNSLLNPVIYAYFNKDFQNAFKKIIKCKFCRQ
Put plainly: Affinity measurement of the compounds to human 5-HT1A receptor (in vitro), [3H]8-OH-DPAT binding. To be noted: test compound 100 nmols/L, [3H]8-OH-DPAT 0.25 nmols/L, CHO cell membrane expressing human 5-HT1A receptor; for inhibition at 0.1 µM: read-out: Percent Inhibition (%) on Each Receptor's Binding at 10^−7M, 5-HT1A. The method, then: (1) Affinity Measurement of the Compounds to Human 5-HT1A Receptor (in Vitro)
CHO cell membrane sample in which human 5-HT1A receptor was expressed (purchased from Packard Bioscience) 0.25 mL (about 50 units) was added to 24.75 mL of incubation buffer solution A (an aqueous solution of a mixture of 50 mmols/L of Tris-hydrochloric acid, 10 mmols/L of magnesium sulfate, 0.5 mmols/L of EDTA and 0.1% ascorbic acid, whose pH was adjusted to 7.4 at 27° C. with 1N-aqueous sodium hydroxide solution), and labeled as membrane sample suspension A. Separately, each test compound was made into 270 μmols/L DMSO solution and diluted to a prescribed concentration with the incubation buffer solution A, to provide a compound solution.
A piece of polypropylene tube was charged with 20 μL of [^3H]8-OH-DPAT (8-hydroxy-2-(di-n-propylamino)tetralin; purchased from Daiichi Pure Chemicals Co., Ltd.) (The concentration of the [^3H]8-OH-DPAT had been advancedly adjusted to render its concentration in the reaction mixture to 0.25 nmols/L) and 20 μL of one of the compound solutions. Further 500 μL of the membrane sample suspension A was added into the tube, followed by 60 minutes' incubation at 27° C. The reaction was terminated by rapid filtration of the reaction mixture through GF/C filter which had been advancedly immersed in a solution formed by adding to the incubation buffer solution A polyethyleneimine to a concentration of 0.3%, using Brandel cell harvester. Then the filter was washed with about 5 mL of 50 mmols/L of Tris-hydrochloric acid which had been cooled to 4° C. The filter was once again washed after similar operation.
Residual radioactivity on the filter was measured with liquid scintillation counter (Aloka Co., LSC-5100). Percent inhibition (%) of each test compound to binding of [^3H]8-OH-DPAT to 5-HT1A receptor at a concentration of 0.25 nmols/L, i.e., affinity of each test compound to 5-HT1A receptor, can be calculated according to the following expression. The ratio of non-specific binding was calculated by measuring the radioactivity in case of using 8-OH-DPAT at a concentration of 10 μmols/L, with which value the measured value of each test compound was compensated.
(§1) Affinity of each test compound to 5-HT1A receptor and 5-HT3 receptor at a concentration of 100 nmols/L were as shown in the following Tables A-1 and A-2. BRL-43694 and tropisetron (ICS 205-930), which were used in measuring affinity of those compounds to 5-HT3 receptor, have the following structures: […]

A further test concerns the target T2, human 5-HT3 receptor (Homo sapiens, UniProt P46098).
T2 construct: purchased BIOLINKS K.K; host or cells: HEK-293 cells (membrane preparation)
T2 sequence (P46098 24-478): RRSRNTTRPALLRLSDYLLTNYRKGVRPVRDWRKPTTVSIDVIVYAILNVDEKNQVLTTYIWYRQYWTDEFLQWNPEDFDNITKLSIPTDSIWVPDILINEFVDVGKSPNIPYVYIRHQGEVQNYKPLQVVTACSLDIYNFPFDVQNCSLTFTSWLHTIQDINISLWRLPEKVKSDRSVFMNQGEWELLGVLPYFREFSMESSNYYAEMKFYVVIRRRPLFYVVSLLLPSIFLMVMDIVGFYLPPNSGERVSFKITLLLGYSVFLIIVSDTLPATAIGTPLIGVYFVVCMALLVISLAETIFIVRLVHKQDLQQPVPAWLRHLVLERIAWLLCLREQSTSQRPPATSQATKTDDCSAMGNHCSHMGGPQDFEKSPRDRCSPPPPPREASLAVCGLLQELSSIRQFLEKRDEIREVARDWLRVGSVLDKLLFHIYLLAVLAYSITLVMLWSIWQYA
Kind of test: Measurement of affinity to human 5-HT3 receptor (in vitro), [3H]BRL-43694 binding. The conditions noted are these: test compound 100 nmols/L, [3H]BRL-43694 0.5 nmols/L, HEK-293 cell membrane expressing human 5-HT3 receptor; for inhibition at 0.1 µM: read-out: Percent Inhibition (%) on Each Receptor's Binding at 10^−7M, 5-HT3. The method, then: (2) Measurement of Affinity of Each Test Compound to Human 5-HT3 Receptor (in Vitro):
HEK-293 cell membrane sample in which human 5-HT3 receptor was expressed (purchased from BIOLINKS K.K.) 0.05 mL (about 50 microassay) was added to 24.95 mL of incubation buffer solution B (an aqueous solution of a mixture of 50 mmols/L of Tris-hydrochloric acid, 5 mmols/L of magnesium chloride and 1 mmol/L of EDTA, whose pH was adjusted to 7.5 at 25° C. with 1N-aqueous sodium hydroxide solution) and homogenized, to provide a membrane sample suspension B. Separately, each test compound was made into 270 μmols/L of DMSO solution and diluted to a prescribed concentration with the incubation buffer solution B to provide a compound solution.
A piece of polypropylene tube was charged with 20 μL of [^3H]BRL-43694 (purchased from Daiichi Pure Chemicals Co., Ltd.) (The concentration of [^3H]BRL-43694 had been advancedly adjusted to render its concentration in the reaction mixture to 0.5 nmols/L.) and 20 μL of one of the compound solutions. Further 500 μL of the membrane sample suspension B was added into the tube, followed by 60 minutes' incubation at 25° C. The reaction was terminated by rapid filtration of the reaction mixture through GF/B filter which had been advancedly immersed in a solution formed by adding to the incubation buffer solution B polyethyleneimine to a concentration of 0.5%, using Brandel cell harvester. Then the filter was washed with about 5 mL of 50 mmols/L of Tris-hydrochloric acid which had been cooled to 4° C. The filter was once again washed after similar operation.
Residual radioactivity on the filter was measured with liquid scintillation counter (ALOKA CO., LTD. LSC-5100). Percent inhibition (%) of each test compound to binding of [^3H]BRL-43694 to 5-HT3 receptor at a concentration of 0.5 nmols/L, i.e., affinity of each test compound to 5-HT3 receptor, can be calculated according to the following expression. The ratio of non-specific binding was calculated by measuring the radioactivity in case of using tropisetron: (ICS 205-930) at a concentration of 10 μmols/L, with which value the measured value of each test compound was compensated.
as §1

Molecules are shown by their SMILES. Counter-ions that a name gives are not always drawn.

`Cc1sc2nc(SCCCN3CCN(c4ccc5ccccc5n4)CC3)n(N)c(=O)c2c1C` [Example 1-1, 3-amino-5,6-dimethyl-2-[3-(4-quinolin-2-ylpiperazin-1-yl)-propylthio]-3H-thieno[2,3-d]pyrimidin-4-one]: the inhibition (as a rule, the drop in the measured response relative to a control, in per cent) at 0.1 µM on human 5-HT1A receptor was found to be 94.5%; at human 5-HT3 receptor it was 94%.

Turning to `Nn1c(SCCCN2CCN(c3ccc4ccccc4n3)CC2)nc2sc3c(c2c1=O)CCCC3` [Example 1-4, 3-amino-2-[3-(4-quinolin-2-ylpiperazin-1-yl)propylthio]-5,6,7,8-tetrahydro-3H-benzo[4,5]thieno[2,3-d]pyrimidin-4-one], the figures for the inhibition at 0.1 µM at human 5-HT1A receptor and on human 5-HT3 receptor were 96.6% and 93.2%, respectively.

For `Cc1sc2nc(SCCCN3CCN(c4nc5ccccc5n5cccc45)CC3)n(N)c(=O)c2c1C` [Example 1-5, 3-amino-5,6-dimethyl-2-[3-(4-pyrrolo[1,2-a]quinoxalin-4-ylpiperazin-1-yl)propylthio]-3H-thieno[2,3-d]pyrimidin-4-one], the figures for the inhibition at 0.1 µM at human 5-HT1A receptor and at human 5-HT3 receptor were 85% and 82.6%, respectively.

Regarding `CCOC(=O)c1sc2nc(SCCCN3CCN(c4ccc5ccccc5n4)CC3)n(N)c(=O)c2c1C` [Example 1-14, 3-amino-5-methyl-4-oxo-2-[3-(4-quinolin-2-ylpiperazin-1-yl)-propylthio]-3,4-dihydrothieno[2,3-d]pyrimidine-6-carboxylic acid ethyl ester], the inhibition at 0.1 µM at human 5-HT1A receptor came out at 99.8%; at human 5-HT3 receptor it was 95.9%.

With `NN1Oc2c(sc3c2CCCCCC3)N=C1SCCCN1CCN(c2ccc3ccccc3n2)CC1` [Example 1-24, 3-amino-2-[3-(4-quinolin-2-ylpiperazin-1-yl)propylthio]-3,4,5,6,7,8,9,10-octahydro-4-oxa-11-thia-1,3-diaza-11H-cycloocta[a]-indene], the inhibition at 0.1 µM at human 5-HT1A receptor worked out at 95.7%; at human 5-HT3 receptor, 79.6%.

Turning to `CC1CCc2c(sc3nc(SCCCN4CCN(c5ccc6ccccc6n5)CC4)n(N)c(=O)c23)C1` (stereo not shown) [Example 1-31, 3-amino-7-methyl-2-[3-(4-quinolin-2-ylpiperazin-1-yl)propylthio]-5,6,7,8-tetrahydro-3H-benzo[4,5]thieno[2,3-d]pyrimidin-4-one], the inhibition at 0.1 µM at human 5-HT1A receptor was determined as 97.9%; on human 5-HT3 receptor, 92.4%.

Regarding `Cc1cc(N2CCN(CCCSc3nc4sc5c(c4c(=O)n3N)CCCC5)CC2)nc2ccccc12` [Example 1-33], the “Percent Inhibition (%) on Each Receptor's Binding at 10^−7M, 5-HT1A” value at human 5-HT1A receptor is listed as 94.0%. Moreover, on human 5-HT3 receptor, the “Percent Inhibition (%) on Each Receptor's Binding at 10^−7M, 5-HT3” value turned out to be 94.2%.

`NN1Oc2c(sc3c2CCNC3)N=C1SCCCN1CCN(c2ccc3ccccc3n2)CC1` [Example 1-59, 3-amino-2-[3-(4-quinolin-2-ylpiperazin-1-yl)propylthio]-3,4,5,6,7,8-hexahydro-4-oxa-9-thia-1,3,7-triaza-9H-fluorene trihydrochloride]: the inhibition at 0.1 µM at human 5-HT1A receptor amounted to 100%; on human 5-HT3 receptor it was 50%.

As to `O=c1[nH]c(SCCCN2CCN(c3ccc4ccccc4n3)CC2)nc2ccsc12` [Example 2-12, 2-[3-(4-quinolin-2-ylpiperazin-1-yl)propylthio]-3H-thieno[3,2-d]-pyrimidin-4-one], the inhibition at 0.1 µM at human 5-HT1A receptor worked out at 41.9%; at human 5-HT3 receptor it was 34.6%.

For the compound `CCCc1cc(=O)[nH]c(SCCCN2CCN(c3ccc4ccccc4n3)CC2)n1` [Example 2-14, 6-propyl-2-[3-(4-quinolin-2-ylpiperazin-1-yl)propylthio]-3H-pyrimidin-4-one], the inhibition at 0.1 µM at human 5-HT1A receptor worked out at 57.7%; on human 5-HT3 receptor, 51.9%.

For `Cc1cc(N2CCN(CCCSc3nc4sc5c(c4c(=O)[nH]3)CCNC5)CC2)nc2ccccc12` [Example 2-20, 2-[3-[4-(4-methylquinolin-2-yl)piperazin-1-yl]propylthio]-3,4,5,6,7,8-hexahydro-4-oxo-9-thia-1,3,7-triaza-9H-fluorene trihydrochloride], the inhibition at 0.1 µM at human 5-HT1A receptor is 81.6%; on human 5-HT3 receptor, 52.8%.

Regarding `Cc1sc2nc(CCCCN3CCN(c4ccc5ccccc5n4)CC3)[nH]c(=O)c2c1C` [Example 3-1, 5,6-dimethyl-2-[4-(4-quinolin-2-ylpiperazin-1-yl)butyl]-3H-thieno[2,3-d]pyrimidin-4-one], the inhibition at 0.1 µM on human 5-HT1A receptor was determined as 77%; on human 5-HT3 receptor it was 96.9%.

On to `Cc1ccc2nc(CCCCN3CCN(c4ccc5ccccc5n4)CC3)n(N)c(=O)c2c1` [Example 4-20, 3-amino-6-methyl-2-[4-(4-quinolin-2-ylpiperazin-1-yl)butyl]-3H-quinazolin-4-one], for which the inhibition at 0.1 µM was determined as 94.3% at human 5-HT1A receptor and 87.8% at human 5-HT3 receptor.

With `COc1cc(N2CCN(CCCCc3nc4ccccc4c(=O)n3N)CC2)nc2ccccc12` [Example 4-22, 3-amino-2-[4-(4-methoxyquinolin-2-yl)piperazin-1-yl]butyl-3H-quinazolin-4-one], the “Percent Inhibition (%) on Each Receptor's Binding at 10^−7M, 5-HT1A” value at human 5-HT1A receptor was 58.2%. Besides, the “Percent Inhibition (%) on Each Receptor's Binding at 10^−7M, 5-HT3” value at human 5-HT3 receptor was 93.9%.
